Results published in ChEMBL document CHEMBL1135086.

Target: Nitric oxide synthase 1 (Rattus norvegicus) (UniProt P29476)
Assay: Effect on the activity of recombinant rat neuronal nitric oxide synthase as determined with radioactive L-arginine/L-citruline conversion assay
Set-up: concentration or dose not given beside the values
Details: concentration not given here

Sequence of Nitric oxide synthase 1 (Rattus norvegicus) (P29476 whole entry): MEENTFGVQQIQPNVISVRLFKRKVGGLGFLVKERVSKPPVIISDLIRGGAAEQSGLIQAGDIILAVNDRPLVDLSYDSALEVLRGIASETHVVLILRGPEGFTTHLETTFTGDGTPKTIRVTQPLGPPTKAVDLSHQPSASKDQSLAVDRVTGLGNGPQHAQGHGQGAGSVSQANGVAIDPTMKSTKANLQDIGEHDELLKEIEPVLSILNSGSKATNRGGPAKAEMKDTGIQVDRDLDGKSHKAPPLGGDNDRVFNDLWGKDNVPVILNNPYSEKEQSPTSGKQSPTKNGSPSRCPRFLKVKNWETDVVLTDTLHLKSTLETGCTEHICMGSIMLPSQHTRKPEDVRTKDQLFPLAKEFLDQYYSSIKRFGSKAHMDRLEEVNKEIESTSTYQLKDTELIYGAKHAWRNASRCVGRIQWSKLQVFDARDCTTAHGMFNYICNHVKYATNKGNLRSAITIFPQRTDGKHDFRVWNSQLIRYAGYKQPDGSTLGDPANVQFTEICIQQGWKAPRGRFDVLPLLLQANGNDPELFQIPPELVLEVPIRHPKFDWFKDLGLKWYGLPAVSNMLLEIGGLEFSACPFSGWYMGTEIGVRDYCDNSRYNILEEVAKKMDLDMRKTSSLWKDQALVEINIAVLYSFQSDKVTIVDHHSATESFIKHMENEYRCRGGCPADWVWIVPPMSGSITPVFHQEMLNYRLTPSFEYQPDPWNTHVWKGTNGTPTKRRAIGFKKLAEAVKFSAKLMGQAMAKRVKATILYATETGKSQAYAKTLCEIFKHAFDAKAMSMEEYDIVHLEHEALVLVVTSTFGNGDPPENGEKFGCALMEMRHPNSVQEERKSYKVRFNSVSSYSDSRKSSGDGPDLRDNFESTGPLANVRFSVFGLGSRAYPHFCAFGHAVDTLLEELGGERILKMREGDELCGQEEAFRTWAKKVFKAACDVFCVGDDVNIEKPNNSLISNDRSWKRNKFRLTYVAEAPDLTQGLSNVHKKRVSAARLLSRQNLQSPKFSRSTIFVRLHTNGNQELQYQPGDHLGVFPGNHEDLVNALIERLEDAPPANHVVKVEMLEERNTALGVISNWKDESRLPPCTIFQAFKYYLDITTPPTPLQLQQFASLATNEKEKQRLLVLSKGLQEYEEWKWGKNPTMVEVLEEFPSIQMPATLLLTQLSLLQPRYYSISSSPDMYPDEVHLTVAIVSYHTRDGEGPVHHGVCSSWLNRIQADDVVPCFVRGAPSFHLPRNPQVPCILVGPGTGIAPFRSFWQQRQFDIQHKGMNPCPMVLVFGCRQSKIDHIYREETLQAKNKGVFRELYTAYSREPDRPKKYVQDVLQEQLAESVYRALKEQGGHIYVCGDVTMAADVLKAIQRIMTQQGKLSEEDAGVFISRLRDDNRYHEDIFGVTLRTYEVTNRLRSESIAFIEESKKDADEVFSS

SMILES | inhibition
O=[N+]([O-])c1cccc(O)c1O | 94%
NCC(O)c1cc(O)c(O)cc1[N+](=O)[O-] (stereo unspecified) | 78%
Cc1cc(O)c(O)cc1[N+](=O)[O-] | 35%
O=[N+]([O-])c1ccc(O)c(O)c1 | 33%
NCCc1cc(O)c(O)cc1[N+](=O)[O-] | 71%
Cc1cc([N+](=O)[O-])cc(O)c1O | 28%
